The source made the active and inactive calls.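 The calls were made as follows: active = half-maximal concentration at most 10 µM and% response shifting at least 30 points across doses; inactive = the rest.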
The compounds below were run against Cell division control protein 42 homolog (Homo sapiens) (UniProt P60953) (assay: inhibitors of activated Cdc42 GTP binding, SAR follow-up, selectivity assay for Rab7 inhibitor project, biochemical, activated mutant, bead multiplex, flow cytometry, round 1 (AID 588384)). Settings: GST-Cdc42 act beads, fluorescent GTP binding.
Cell division control protein 42 homolog (Homo sapiens), sequence (P60953 whole entry, looked up): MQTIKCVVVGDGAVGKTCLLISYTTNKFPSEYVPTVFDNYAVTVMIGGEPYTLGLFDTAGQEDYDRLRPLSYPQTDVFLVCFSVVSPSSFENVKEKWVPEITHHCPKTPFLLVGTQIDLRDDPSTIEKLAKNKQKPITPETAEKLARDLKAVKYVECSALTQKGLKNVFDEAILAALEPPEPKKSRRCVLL

| SMILES | EC50 [µM] |
| --- | --- |
| O=C(NC(=S)Nc1sc2c(c1C(=O)O)CCOC2)c1ccccc1 | 0.044 |
| CC1(C)CCc2sc(NC(=S)NC(=O)c3ccccc3)c(C(=O)O)c2C1 | 0.108 |
| COc1ccc(C(=O)NC(=S)Nc2sc3c(c2C(=O)O)CC(C)(C)OC3)cc1 | 0.204 |
| CC1Cc2c(sc(NC(=S)NC(=O)c3ccccc3)c2C(=O)O)CO1 (stereo unspecified) | 0.09 |

Further lines, results first:

| EC50 [µM] | SMILES |
| --- | --- |
| 0.054 | CC1(C)Cc2c(sc(NC(=S)NC(=O)c3ccccc3Br)c2C(=O)O)CO1 |
| 0.051 | CC1(C)Cc2c(sc(NC(=S)NC(=O)c3ccccc3F)c2C(=O)O)CO1 |
| 0.326 | CC1(C)Cc2c(sc(NC(=S)NC(=O)c3cccc(F)c3)c2C(=O)O)CO1 |
| 0.468 | CC1(C)Cc2c(sc(NC(=O)NC(=O)c3ccccc3)c2C(=O)O)CO1 |
| 0.289 | CC1(C)Cc2c(sc(NC(=S)NC(=O)c3ccc(Br)cc3)c2C(=O)O)CO1 |
| 0.054 | COc1cccc(C(=O)NC(=S)Nc2sc3c(c2C(=O)O)CC(C)(C)OC3)c1 |
| 5.69 | CC1(C)Cc2c(sc(NC(=S)NC(=O)c3cccc(Br)c3)c2C(=O)O)CO1 |

Same assay, conditions: GST-Cdc42 act beads, fluorescent GTP binding, at 100 µM (top of the series)

| SMILES | % response (lower = inhibition) |
| --- | --- |
| CCOC(=O)c1c(N)sc2ccccc12 | inactive |
| CN1CCc2c(sc3nc(Nc4ccc(F)cc4)oc(=O)c23)C1 | inactive |
| CCOC(=O)c1c(NC(=O)Nc2ccc(C)cc2)sc2c1CCN(C)C2 | inactive |
| CCOC(=O)c1c(NC(=S)NC(=O)c2ccccc2)sc2ccccc12 | inactive |
| CCOC(=O)c1c(NC(=O)NC(C)(C)C)sc2c1CCN(C)C2 | inactive |
| CC(C)(C)OC(=O)c1c(NC(=S)NC(=O)c2ccccc2)sc2c1CCOC2 | inactive |
| Cc1ccc(NC(=O)Nc2sc3c(c2C(=O)O)CCN(C)C3)cc1 | inactive |
| CN1CCc2c(sc(NC(=O)Nc3ccc(F)cc3)c2C(=O)O)C1 | inactive |
| Cc1ccc(Nc2nc3sc4c(c3c(=O)o2)CCN(C)C4)cc1 | inactive |
| CCOC(=O)c1c(NC(=O)Nc2ccc(F)cc2)sc2c1CCN(C)C2 | inactive |
| COC(=O)c1c(N)sc2c1CC(C)(C)OC2 | inactive |

Next, values leading:

| % response (lower = inhibition) | SMILES |
| --- | --- |
| inactive | CC1(C)Cc2c(sc(NC(=O)Cc3ccccc3)c2C(=O)O)CO1 |
| inactive | COC(=O)c1c(NC(=S)NC(=O)c2ccccc2)sc2c1CC(C)(C)OC2 |
| inactive | CC1(C)Cc2c(sc(NC(=S)Nc3ccccc3)c2C(=O)O)CO1 |
| inactive | CCOC(=O)c1c(NC(=S)Nc2ccccc2)sc2c1CC(C)(C)OC2 |
